Experimental data as given in US20130149362A1, “TREATMENT PRODUCT AND METHOD” (priority 2007, published 2013).

Test: penetration of retinal into the skin (topical application)
Details: retinal by itself

- penetration rate: about 2%
SMILES: CC1=C(/C=C/C(C)=C/C=C/C(C)=C/C=O)C(C)(C)CCC1 [Retinal]
